Test results published in US8048872B2, “Treatment of hyperproliferative diseases with vinca alkaloid N-oxide and analogs” (Stat of Oregon Acting by and Through The Oregon State Board …, priority 2006, dated 2011).
“And” between values parts separate entries of the source, which are not always exact repeats. Equal values may be shown once. Read-outs that look alike come from different tables or passages of the source.

Columns and labels:
[1] = test system: multiple human solid tumor cell lines; assay: Hypoxia-induced cytotoxicity across cell lines (HCR range); assay type: cell-based
Procedure: (§1) Tumor cell line were cultured in DMEM-10% FBS under standard conditions. One-hundred mm plastic culture dishes were seeded with 1×10^6 tumor cells and treated with vinca alkaloids or N-oxide analogs at a dose range of 0.01-100 nM. Cells were exposed with gentle rocking to a constant level of low oxygen (0.2% O2-5% CO2-balance N2) in a hypoxia apparatus (INVIVO2400 Hypoxia Workstation, Ruskin Technology) for 14 hr at 37° C. Identically treated cells were incubated under normoxia (air-5% CO2) at 37° C. Cells were harvested and replated in fresh medium at a density of 1×10^3 cells/well in 48-well plastic culture plates to assess viability 24-72 hr later. Briefly, Alamar Blue was added to replicate wells on Day 0 and Day 3, and cells were incubated for a further 3-6 hr at 37° C. before fluorescence readings using a plate reader (530-560 nm excitation, 590 emission). The percent inhibition of proliferation was calculated and plotted against control-treated cells at each drug concentration. […] The Hypoxia Cytotoxicity Ratio (HCR) was determined as the ratio of the IC50 of the compound under normoxic conditions vs. hypoxic conditions.

[2] = test system: H460 lung carcinoma tumor cells; assay type: cell-based, human
[3] = test system: human K562 myelogenous leukemia cells; assay: in vivo
Procedure: In one example, female nude mice (n=10) were inoculated subcutaneously with 15×10^6 human K562 myelogenous leukemia cells in a 1:1 ratio with matrigel on the right flank. Tumor volumes were monitored and calculated using the formula: Tumor volume=(a^2×b/2) where ‘a’ is the smallest diameter and ‘b’ is the largest diameter. Once the established tumors reached approximately 75-150 mm^3 (individual tumor volumes may range from […]) the mice were assigned to the various vehicle control and treatment groups such that the mean tumor volumes in the treated groups were within 10% of the mean tumor weight in the vehicle control group. On the same day (day 1) and days 4, 7, 10, and 13, vinca-alkaloid N-oxide analogs (VCR-NO, VBL-NO) were administered intravenously according to a q3d×5 schedule. Mice were also treated with vehicle (negative control) and the standard agents, vinblastine and vincristine (positive controls). Tumor volumes were recorded three times a week starting when tumors were palpable and including the day of study termination. Animals were monitored for signs of toxicity and body weights were recorded twice a week starting on the first day of treatment and including the day of study termination. […] The mean day of sacrifice were calculated to determine the tumor growth delay and tumor growth inhibition effects of each test article as compared to vehicle control. […] Statistical significance between the treated vs. control groups was evaluated by logrank analysis.

[4] = test system: FaDU head and neck tumor cell lines
Procedure: as §1

[5] = test system: human H460 lung adenocarcinoma cells
Procedure: Human H460 lung adenocarcinoma tumor cells were cultured in DMEM-10% FBS under standard conditions. One-hundred mm plastic culture dishes were seeded with 1×10^6 tumor cells/dish and treated with vinca alkaloids or N-oxide analogs at a 0.01-100 nM dose range. Cells were exposed with gentle rocking to a constant level of low oxygen (0.2, 1% or 5% O2-5% CO2-balance N2) in a hypoxia apparatus (INVIVO2400 Hypoxia Workstation, Ruskin Technology) for 14 hr at 37° C. Identically treated cells were incubated under normoxia (air-5% CO2) at 37° C. Cells were harvested and replated in fresh medium at a density of 1×10^3 cells/well in 48-well plastic culture plates to assess viability 24-72 hr later. Briefly, Alamar Blue was added to replicate wells on Day 0 and Day 3, and cells were incubated for a further 3-6 hr at 37° C. before fluorescence readings using a plate reader (530-560 nm excitation, 590 emission). The percent inhibition of proliferation was calculated and plotted against control-treated cells at each drug concentration. […] The Hypoxia Cytotoxicity Ratio (HCR) was defined as ((IC50 in Hypoxia)/(IC50 in Normoxia)).

[6] = test system: Human H460 lung adenocarcinoma tumor cells
Procedure: Cells were exposed with gentle rocking to a constant level of low oxygen (0.2% O2-5% CO2-balance N2) in a hypoxia apparatus (INVIVO2400 Hypoxia Workstation, Ruskin Technology) for 12 hr at 37° C. Identically treated cells were incubated under normoxia (air-5% CO2) at 37° C. Cells were harvested and lysed in DNA lysis buffer (20 mM Tris-HCL, pH 8.0, 1 mM EDTA, 0.1% Triton X-100) and stored at −80° C. for analysis of DNA content and LC/MS/MS analysis. […] Lysates were mixed with 150 ml of methanol containing 0.1% acetic acid and vinca alkaloid internal standard, and vortexed for 10 min, and centrifuged for 5 min at 18000 g. Clarified supernatants were transferred to HPLC vials fitted with glass inserts and analyzed by LC-MS/MS. Chromatography was performed on an Acquity HPLC system fitted with an Acquity BEH C18 column, and used 0.1% (v:v) formic acid in water for mobile phase A, and 0.1% (v:v) formic acid in acetonitrile for mobile phase B. Mass spectral analysis was performed using a Micromass Quattro Micro triple quadupole mass spectrometer.
The amounts of each compound were calculated from standard curves.

[7] = mouse, in vivo
Procedure: Body weights were monitored twice weekly and up to 2 weeks following treatment. Mice were also injected ip with 4 or 6 mg/kg vinblastine using the same q3d×5 schedule as a positive control.

[8] = test system: human HL60 promyelocytic leukemia cells; settings: in vivo
[9] = test system: murine P388 leukemic tumor cells; assay: in vivo; settings: mouse, in vivo
Procedure: For example, B6D2F1 mice (n=8/group) were inoculated subcutaneously (sc) in the right flank with 1×10^6 murine L1210 leukemic tumor cells. […] Test agents were administered on multiple treatment regimen (q3d×5) to yield optimal dose schedule benefit. Vehicle control treated mice served as the negative control group; mice treated with the bioreduced parent compounds, vincristine and vinblastine, dosed at their […] (MTDs), served as the positive control groups. Tumors were measured with calipers twice weekly and tumor volume calculated using the formula: Tumor Volume (mm^3)=((width)^2×length)/2. Animals were monitored for signs of toxicity and weighed daily for the first 5 days of the study and then twice-weekly until the study end. As pre-defined in the protocol, each animal was actively euthanized when its tumor reached the pre-determined endpoint size of 2000 mm^3 or at the conclusion of the study (day 37) whichever came first. The time to endpoint (TTE) was calculated for each mouse as TTE (days)=(log10(endpoint volume mm^3)−b)/m where b is the intercept and m is the slope of the line obtained by linear regression of a log-transformed tumor growth data set. Treatment outcome was determined from tumor growth delay (TGD) which is defined as the increase in median TTE in a treatment (T) group as compared to the control (C) group (TGD=T−C) expressed in days or as a percentage of the median TTE of the control group % TGD=((T−C)/C)×100. […] Statistical significance between the treated vs. control groups was evaluated by logrank analysis.
This model was developed by subcutaneously inoculating B6D2F1 mice (n=8/group) with 1×10^6 murine P388 leukemic tumor cells using similar methodology to that described above for L1210. […] Agents were administered on multiple treatment regimen (q3d×5) to yield optimal dose schedule benefit. Efficacy of treatment with the N-oxide analogs was determined by Tumor Growth Delay (TGD) and Kaplan-Meier survival analysis as described for L1210, the exception being that the conclusion of the study was day 45 or the predefined endpoint size of 2000 mm^3 whichever came first. Vehicle control treated mice served as the negative control group; mice treated with the standard agents, vincristine and vinblastine, dosed at their MTDs, served as the positive control groups.

[10] = test system: human HT29 colorectal adenocarcinoma; parameters: species or system mouse; settings: in vivo
[11] = test system: A549 non-small cell lung carcinoma
Procedure: as §1

[12] = mouse, in vivo; remark: listed apart in the source
Procedure: Body weights were monitored twice weekly and up to 2 weeks following treatment. Mice were also injected iv with 0.6 or 1 mg/kg vincristine using the same q3d×5 schedule as a positive control.

Procedure for SiHa: as §1

| SMILES | HCR values [1] | Hypoxia Cytotoxicity Ratio [2] | IC50 inhibitory activity after activation under hypoxia [2] | Tumor Growth Inhibition [3] | Hypoxia Cytotoxicity Ratio (HCR) (SiHa) | Hypoxia Cytotoxicity Ratio (HCR) [4] | cytotoxicity vs oxygen concentration [5] | bioreduction to parent compound [6] | body weight loss / gross symptoms of toxicity [7] | Tumor Growth Inhibition [8] | Tumor Growth Delay [9] | Tumor Growth Delay [10] [%] | Hypoxia Cytotoxicity Ratio (HCR) [11] | body weight loss / gross symptoms of toxicity [12] |
| --- | --- | --- | --- | --- | --- | --- | --- | --- | --- | --- | --- | --- | --- | --- |
| CC[C@]1(O)C[C@H]2C[C@](C(=O)OC)(c3cc4c(cc3OC)N(C)[C@H]3[C@@](O)(C(=O)OC)[C@H](OC(C)=O)[C@]5(CC)C=CCN6CC[C@]43[C@@H]65)c3[nH]c4ccccc4c3CC[N@+]([O-])(C2)C1 [Vinblastine N-oxide, Vinblastine N′b-Oxide] | 3-21 | ~20 | low nanomolar | 77% and 89% | 4.3 | 7.5 | Increased cytotoxicity | bioreduced to vinblastine under hypoxia exposure | no evidence of significant body weight loss or gross symptoms of toxicity | 91% and 94% |  |  |  |  |
| CC[C@]1(O)C[C@@H]2C[C@](C(=O)OC)(c3cc4c(cc3OC)N(C=O)[C@H]3[C@@](O)(C(=O)OC)[C@@H](OC(C)=O)[C@]5(CC)C=CCN6CC[C@]43[C@@H]65)c3[nH]c4ccccc4c3CC[N@+]([O-])(C2)C1 [Vincristine N-oxide, Vincristine N′b-Oxide] | 5-25 |  |  | 69% and 84% and 60% |  | 6 |  | bioreduced to vincristine under hypoxia exposure |  | 94% and 96% | 76% and 54% | 42 | 11.2 | no evidence of significant body weight loss or gross symptoms of toxicity |
